pIC50, pKd: −log10 of the molar value. Each block holds one compound with its values, some of them ahead of it. Calls of active or inactive are those of the source. The rule behind the calls is not given here.
What was measured:
[1] = molecular target: T1, Solute carrier family 2, facilitated glucose transporter member 1 (Homo sapiens) (UniProt P11166); assay: Agonist activity at GLUTI (unknown origin); settings: filed as agonist
T1 sequence (whole entry): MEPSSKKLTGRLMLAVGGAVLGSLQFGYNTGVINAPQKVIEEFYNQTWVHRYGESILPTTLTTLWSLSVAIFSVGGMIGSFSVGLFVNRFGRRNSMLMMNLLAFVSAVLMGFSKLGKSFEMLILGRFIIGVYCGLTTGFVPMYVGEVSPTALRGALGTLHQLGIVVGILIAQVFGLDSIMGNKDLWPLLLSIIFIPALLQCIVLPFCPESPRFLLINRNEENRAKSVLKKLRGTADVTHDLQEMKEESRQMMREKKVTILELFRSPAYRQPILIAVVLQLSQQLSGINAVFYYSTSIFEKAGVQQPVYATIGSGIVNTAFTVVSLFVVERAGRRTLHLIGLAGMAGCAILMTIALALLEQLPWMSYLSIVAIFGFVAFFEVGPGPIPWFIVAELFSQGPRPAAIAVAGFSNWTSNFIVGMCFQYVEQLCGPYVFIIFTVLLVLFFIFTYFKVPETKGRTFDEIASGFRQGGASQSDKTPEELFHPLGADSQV

[2] = molecular target: T1, Solute carrier family 2, facilitated glucose transporter member 1 (Homo sapiens); assay: Inhibition of GLUTI (unknown origin)
[3] = molecular target: T2, Solute carrier family 2, facilitated glucose transporter member 1 (Homo sapiens, UniProt P11166); assay: Binding affinity to GLUT1 (unknown origin) assessed as dissociation constant at 800 uM by MST assay
T2 sequence (P11166 whole entry): T1 sequence (whole entry)

[4] = molecular target: T1, Solute carrier family 2, facilitated glucose transporter member 1 (Homo sapiens); assay: Inhibition of GLUT1 in human MCF7 cells assessed as reduction in GLUT1 degradation by CETSA assay; format: cell-based
[5] = system: MCF7; assay: Induction of apoptosis in human MCF7 cells assessed as viable cells at 20 uM incubated for 24 hrs by Annexin V-FITC/7AAD staining based flow cytometery (reference value: 98.8%); format: functional; settings: read-out: Activity
[6] = system: MCF7; assay: Induction of apoptosis in human MCF7 cells assessed as necrotic cells at 10 uM incubated for 24 hrs by Annexin V-FITC/7AAD staining based flow cytometery (reference value: 0.019%); format: functional
[7] = system: MCF7; assay: Anticancer activity against human MCF7 cells assessed as increase in cell necrosis at 20 uM incubated for 48 hrs relative to control; format: functional
[8] = system: MCF7; assay: Anticancer activity against human MCF7 cells assessed as increase in cell apoptosis at 20 uM incubated for 48 hrs relative to control; format: functional
[9] = system: MCF7; assay: Induction of apoptosis in human MCF7 cells assessed as late apoptotic cells at 10 uM incubated for 24 hrs by Annexin V-FITC/7AAD staining based flow cytometery (reference value: 0.68%); format: functional
[10] = system: MCF7; assay: Induction of apoptosis in human MCF7 cells assessed as early apoptotic cells at 10 uM incubated for 24 hrs by Annexin V-FITC/7AAD staining based flow cytometery (reference value: 0.50%); format: functional
[11] = system: MCF7; assay: Induction of apoptosis in human MCF7 cells assessed as viable cells at 10 uM incubated for 24 hrs by Annexin V-FITC/7AAD staining based flow cytometery (reference value: 98.8%); format: functional; settings: read-out: Activity
[12] = system: MCF7; assay: Induction of apoptosis in human MCF7 cells assessed as necrotic cells at 5 uM incubated for 24 hrs by Annexin V-FITC/7AAD staining based flow cytometery (reference value: 0.019%); format: functional
[13] = system: MCF7; assay: Induction of apoptosis in human MCF7 cells assessed as late apoptotic cells at 5 uM incubated for 24 hrs by Annexin V-FITC/7AAD staining based flow cytometery (reference value: 0.68%); format: functional
[14] = system: MCF7; assay: Induction of apoptosis in human MCF7 cells assessed as early apoptotic cells at 5 uM incubated for 24 hrs by Annexin V-FITC/7AAD staining based flow cytometery (reference value: 0.50%); format: functional
[15] = system: MCF7; assay: Induction of apoptosis in human MCF7 cells assessed as viable cells at 5 uM incubated for 24 hrs by Annexin V-FITC/7AAD staining based flow cytometery (reference value: 98.8%); format: functional; settings: read-out: Activity
[16] = system: MCF7; assay: Induction of apoptosis in human MCF7 cells assessed as late apoptotic cells at 20 uM incubated for 24 hrs by Annexin V-FITC/7AAD staining based flow cytometery (reference value: 0.68%); format: functional
[17] = system: MCF7; assay: Induction of apoptosis in human MCF7 cells assessed as necrotic cells at 20 uM incubated for 24 hrs by Annexin V-FITC/7AAD staining based flow cytometery (reference value: 0.019%); format: functional
[18] = system: MCF7; assay: Induction of apoptosis in human MCF7 cells assessed as early apoptotic cells at 20 uM incubated for 24 hrs by Annexin V-FITC/7AAD staining based flow cytometery (reference value: 0.50%); format: functional
[19] = system: MCF7; assay: Induction of cell cycle arrest in human MCF7 cells assessed as accumulation of cells at G2/M phase at 5 uM by propidium iodide staining based flow cytometry (reference value: 9.72%); format: functional; settings: time 30 min, 0.5 h
[20] = molecular target: T1, Solute carrier family 2, facilitated glucose transporter member 1 (Homo sapiens); assay: Inhibition of human GLUT1 in HEK293FT cells assessed as reduction in glucose uptake at 10 uM incubated for 24 hrs and further incubated for 1 hr under dark condition by flow cytometry; format: cell-based; settings: time 25.0 hrs
[21] = Cytotoxicity against human MCF7 cells assessed as reduction in cell viability incubated for 24 hrs by MTT assay; format: toxicity, cell-based
[22] = molecular target: T2, Solute carrier family 2, facilitated glucose transporter member 1; assay: Inhibition of GLUT1 in human MCF7 cells assessed as ATP production incubated for 24 hrs in presence of 0.1 mM glucose; format: cell-based
[23] = molecular target: T2, Solute carrier family 2, facilitated glucose transporter member 1; assay: Inhibition of GLUT1 in human MCF7 cells assessed as ATP production incubated for 24 hrs in presence of 10 mM glucose; format: cell-based
[24] = molecular target: T1, Solute carrier family 2, facilitated glucose transporter member 1 (Homo sapiens); assay: Inhibition of GLUT1 in human MCF7 cells assessed as fold change at 5 uM by Western blot analysis; format: cell-based
[25] = molecular target: T1, Solute carrier family 2, facilitated glucose transporter member 1 (Homo sapiens); assay: Inhibition of GLUT1 in human MCF7 cells assessed as fold change at 10 uM by Western blot analysis; format: cell-based
[26] = molecular target: T1, Solute carrier family 2, facilitated glucose transporter member 1 (Homo sapiens); assay: Inhibition of GLUT1 in human MCF7 cells assessed as fold change at 20 uM by Western blot analysis; format: cell-based
[27] = molecular target: T1, Solute carrier family 2, facilitated glucose transporter member 1 (Homo sapiens); assay: Inhibition of GLUT1 in human MCF7 cells assessed as reduction in lactate production measured after 24 hrs; format: cell-based; settings: dose 5-20 µM
[28] = molecular target: T1, Solute carrier family 2, facilitated glucose transporter member 1 (Homo sapiens); assay: Inhibition of GLUT1 in human MCF7 cells assessed as decrease in extracellular acidification rate at 5 to 20 uM measured for 24 hrs by Seahorse XFe96 analyzer; format: cell-based; settings: dose 5-20 µM
[29] = molecular target: T1, Solute carrier family 2, facilitated glucose transporter member 1 (Homo sapiens); assay: Inhibition of GLUT1 in human MCF7 cells assessed as reduction in maximal respiratory capacity at 5 to 20 uM incubated for 24 hrs by Seahorse XFe96 analyzer; format: cell-based; settings: dose 5-20 µM
[30] = system: MCF7; assay: Induction of oxidative stress in human MCF7 cells assessed as increase in intracellular ROS level at 5 to 20 uM incubated for 24 hrs; format: functional, cell-based; settings: dose 5-20 µM
[31] = system: MCF7; assay: Induction of oxidative stress in human MCF7 cells assessed as fold increase in intracellular ROS level at 20 uM incubated for 24 hrs; format: functional
[32] = system: MCF7; assay: Induction of cell cycle arrest in human MCF7 cells assessed as accumulation of cells at G2/M phase at 10 uM by propidium iodide staining based flow cytometry (reference value: 9.72%); format: functional; settings: time 30 min, 0.5 h
[33] = system: MCF7; assay: Induction of cell cycle arrest in human MCF7 cells assessed as accumulation of cells at G2/M phase at 20 uM by propidium iodide staining based flow cytometry (reference value: 9.72%); format: functional; settings: time 30 min, 0.5 h

- Activity [1]: Active
SMILES: CC(=O)O[C@H]1C=C([C@H](C)[C@H]2CC(C)=C(C)C(=O)O2)[C@@]2(C)CC[C@H]3[C@@H](C[C@H]4O[C@]45[C@@H](O)C=CC(=O)[C@]35C)[C@@]12O

SMILES: CC(=O)O[C@H]1C[C@@](O)([C@H](C)[C@H]2CC(C)=C(C)C(=O)O2)[C@@]2(C)CC[C@H]3[C@@H](C[C@H]4O[C@]45[C@@H](O)C=CC(=O)[C@]35C)[C@@]12O
- Activity [1]: Active

SMILES: CC(=O)O[C@H]1C[C@H]([C@H](C)[C@@H]2OC(=O)C(C)=C(C)[C@@H]2O)[C@@]2(C)CCC3C(C[C@@H](O)[C@@]4(O)CC=CC(=O)[C@]34C)[C@@]12O (some centres not stated)
- inhibition [2]: Active
- pKd [3]: 5.62
- inhibition [4]: Active
- Activity [1]: Active

SMILES: C[C@@]12C[C@H]3OC(=O)[C@@H]1CO[C@]14O[C@@]5([C@H]2C1=O)[C@@]3(C)OC(=O)[C@@]5(O)CC[C@H]1[C@H]4C[C@H]2O[C@]23CC=CC(=O)[C@]13C
- Activity [1]: Active

SMILES: CC(=O)O[C@H]1C=C([C@H](C)[C@H]2CC(C)=C(C)C(=O)O2)[C@@]2(C)CC[C@H]3C(C[C@@H](O)[C@@]4(Cl)CC=CC(=O)[C@]34C)[C@]12O (some centres not stated)
- inhibition [2]: Active

SMILES: CC(=O)O[C@H]1[C@@H]2O[C@]2([C@H](C)[C@H]2CC(CO)=C(C)C(=O)O2)[C@@]2(C)CCC3C(C[C@@H](O)[C@@]4(O)CC=CC(=O)[C@]34C)[C@@]12O (some centres not stated)
- viability at 20 µM [5]: 24.2%
- Activity [6]: 4.56%
- Activity [7]: 60%
- Activity [8]: 15%
- Activity [9]: 46.7%
- Activity [10]: 14.1%
- viability at 10 µM [11]: 34.6%
- Activity [12]: 3.84%
- Activity [13]: 15%
- Activity [14]: 5.76%
- viability at 5 µM [15]: 75.4%
- Activity [16]: 60%
- Activity [17]: 0.92%
- Activity [18]: 14.9%
- Activity [19]: 11.3%
- pKd [3]: 5.59
- inhibition [4]: Active
- inhibition [20]: Active
- IC50 at 24 h [21]: 18 µM
- pIC50 [22]: 5.46
- pIC50 [23]: 3.75
- fold change (FC) [24]: 0.68
- fold change (FC) [25]: 0.44
- fold change (FC) [26]: 0.4
- inhibition [27]: Dose-Dependent Effect
- inhibition [28]: Active
- inhibition [29]: Active
- Activity [30]: Dose-Dependent Effect
- fold change (FC) [31]: 2.8
- Activity [32]: 22%
- Activity [33]: 47.6%

SMILES: CC(=O)O[C@H]1C[C@@](O)([C@H](C)[C@H]2CC(C)=C(C)C(=O)O2)[C@@]2(C)CC[C@H]3[C@@H](C[C@H]4O[C@]45CC=CC(=O)[C@]35C)[C@@]12O
- pKd [3]: 5.59
- inhibition [4]: Active
- Activity [1]: Active
